pIC50: −log10 of the molar value. Read-outs that look alike come from different tables or passages of the source. One block for each compound: values may come before it.
Assays:
[1] = system: murine C6 glioblastoma cells; settings: compared with parent compound 5-methylindirubin; WO 03/070703; cited from earlier work
[2] = system: HT29; test: Inhibition of tumor cell proliferation, Sulforhodamin B assay (SRB assay), HT29; type: cell-based; settings: Homo sapiens, HT-29
Description: (§1) The antiproliferative activity was determined using the Sulforhodamin B assay (SRB assay) as reported previously (Vatter et al. 2005, Int. J. Clin. Pharmacal.Ther. 43, 607). Table 1: Inhibition of tumor cell proliferation, SRB assay.

[3] = system: MCF7; test: Inhibition of tumor cell proliferation, Sulforhodamin B assay (SRB assay), MCF7; type: cell-based; settings: Homo sapiens
Description: as §1

[4] = system: human cancer cell lines; test: Antiproliferative activity against human cancer cell lines, compared with indirubin; type: cell-based; settings: as compared to the parent molecule
Description: as §1

Structure (SMILES): Cc1cc2c(cc1O)NC(=O)C2=C1Nc2ccccc2C1=O
- inhibition of murine C6 glioblastoma cells [1]: as effective as the parent compound

- pIC50 ([2]; HT29, SRB assay, read-out: Inhibition of cell proliferation IC50): 8.30
- pIC50 ([2]; HT29 colon tumor cells, IC50 values ranging down to, read-out: inhibition of proliferation IC50): ≤ 8.70
- pIC50 ([3]; MCF7, MCF-7 breast cancer cells, IC50 values ranging down to, read-out: inhibition of proliferation IC50): ≤ 8.70
- pIC50 ([3]; MCF7, SRB assay, read-out: Inhibition of cell proliferation IC50): 8.15
Structure (SMILES): O=C1Nc2ncccc2C1=C1Nc2ncccc2C1=O [E864, 7,7'-Diazaindirubin]

Structure (SMILES): O=C1Nc2ncccc2/C1=C1/Nc2ccccc2C1=O [Example 12, 7-Azaindirubin]
- antiproliferative activity [4]: markedly augmented

Structure (SMILES): O=C1Nc2ccccc2C1=C1Nc2ncccc2C1=O [E843, 7'-Azaindirubin]
- antiproliferative activity [4]: markedly augmented

— patent publication EP2199292A1, “7-azaindirubins, 7'-azaindirubins, 7-7'-diazaindirubin and the corresponding 3'-oxime ether derivates: production thereof, their production and use as a medicament” (Technische Universität Kaiserslautern, priority 2008, dated 2010)
